Results: patent US12622917B2, “High-activity Wnt pathway inhibitor compound” (ADLAI NORTYE BIOPHARMA CO., LTD., priority 2020, dated 2026)

Columns and labels:
[1] = system: Colo205; assay: Proliferation inhibition, Wnt mutant cell line Colo205; assay type: cell-based; settings: Homo sapiens, COLO 205; Colo205, Wnt pathway-dependent, 96 hours; read-out: Antiproliferative IC50 Colo205
From the text: (§1) The cell lines used in the experiment are Colo205 and DU4475 cell lines whose Wnt pathway is continuously activated and whose proliferation is Wnt pathway-dependent; while the BELA and RKO cell lines, whose Wnt pathway is not activated under normal circumstances and the proliferation is independent of Wnt pathway, as control cell lines. It is Judged that the inhibitory effect of the compound of the present invention on Wnt-dependent proliferation is not caused by other non-specific toxicity.
(§2) Treat the Colo205, Du4475, HELA and RKO cell lines cultured in their respective mediums in the logarithmic growth phase, collect the cells and prepare a uniform cell suspension of known concentration, and then add it to the 96-well cell culture plate Cell suspension, so that each well contains 1000 cells. Put it into a 5% CO2 incubator and incubate at 37° C. for 20-24 h. On the second day, the fully dissolved, 3-fold serially diluted compound was added to each cell culture well, so that the final maximum concentration in the cell culture well was 20 uM, and the culture was continued for 96 hours. In this test, Promega's cell viability detection test is used for detection. The more the cells proliferate, the stronger the final signal intensity will be. The detection instrument is SpectraMax, full wavelength mode. The wells only added with DMSO were used as positive control wells, and the wells that were not inoculated with cells were used as negative control wells. […] The IC50 value of cell proliferation inhibition was used to evaluate the inhibitory effect of the compound on the Wnt pathway and the toxic effect on normal cells (Table 2).

[2] = system: Colo205-LUC-TCF/LEF M1 reporter cell line (Wnt pathway); assay: Colo205-LUC-TCF/LEF M1 reporter gene (luciferase) inhibition; assay type: cell-based; settings: 4 hours incubation, luciferase readout
From the text: Colo205 cell line (Cell Bank of Chinese Academy of Sciences, Cat #TCHu102) was purchased from the Cell Bank of Chinese Academy of Sciences. After expansion and subculture, in the exponential growth phase of the cells, transfection with lipo3000 liposome transfection with TCF/LEF transcription factors Driven luciferase reporter plasmid (Promega). […] The plasmid carries a resistance gene for resistance screening. Transfection was carried out in 10 cm culture dishes using conventional complete medium without resistance. After 2 days, the medium with resistance was replaced, and the culture was continued. After that, the resistant medium was replaced every 2 days, and the suspended cells were discarded. The original medium was centrifuged to remove cells and debris and retained as an adaptive medium. When the cells covered the culture dish, the cells were digested, counted, and passaged in a 96-well plate, so that the average number of cells contained in each well was 1.5/well, and the adaptive medium was used for passage. The rest of the cells were frozen. After subculture, culture for 4 hours to allow the cells to adhere to the wall, and then observe the number of cells in each well under a microscope. Wells with only 1 cell per well were labeled as monoclonal wells. Afterwards, normal culture was performed, and the culture medium was replaced every 2 days, and observed. There are holes where the monoclonal cells continue to grow in the early stage, and they are labeled twice, and can be replaced with normal resistant medium. When a monoclonal well was overgrown with a 96-well plate, it is digested and passaged to a 24-well culture plate. After the 24-well plate is overgrown, it is passaged to a 96-well plate and a 6-well plate. The cells in a 96-well plate are at least 6 wells, of which 3 wells were added with known Wnt inhibitors, and the other 3 wells were not treated. After 24 hours, the cells in the 96-well plate were added with a fluorescence detection reagent to detect the fluorescence intensity. Cell lines with fluorescent expression when not treated and decreased fluorescent light after inhibition were selected and further cultured. The Colo205-LUC-TCF/LEF-M1 cell line is one of the cell lines screened above. Its growth curve, cell shape, and cell growth state are similar to those of the original Colo205 cells, and the ratio of the fluorescent signals of the inhibitor-treated and untreated cells is the largest among all cell lines, and the ratio can reach 4-5 times when inhibited at 4 hours, which was completely suitable for the screening of Wnt inhibitors in the later stage.
The Colo205-LUC-TCF/LEF M1 cell line is a reporter tool cell stably transfected with the pGL4.49-LUC2-TCF/LEF vector. The β-catenin Wnt pathway is continuously activated. After adding the inhibitor, the Wnt pathway is inhibited. The expression of firefly luciferase regulated by the[…] cis-element decreased, and after adding the detection substrate, the detected light signal decreased accordingly, so as to detect the inhibitory effect of the compound.
To a 96-well cell culture plate, add 100 uL of the compound with a maximum concentration of 20 uM to each well, and make a 3-fold serial dilution of the compound concentration. Then 10,000 colo205 cells stably transfected with the reporter gene and 100 uL medium were inoculated into each well, and corresponding positive and negative control wells were made at the same time. Put the cells in a 5% CO2 incubator and incubate at 37° C. for 4 hours. After 4 hours, remove the culture medium, add 100 uL of reagent (Promega) containing the corresponding firefly luciferase substrate to each well, and measure the activity of luciferase reporter gene. Luminescence intensity was read with SpectraMax in full wavelength mode. […]

[3] = system: RKO; assay: Proliferation inhibition, non-Wnt mutant control cell line RKO; assay type: cell-based; settings: Homo sapiens, Wnt-independent control cell line, 96 hours, read-out: Antiproliferative IC50 RKO
From the text: as §1, §2

[4] = system: DU4475; assay: Proliferation inhibition, Wnt mutant cell line DU4475; assay type: cell-based; settings: Homo sapiens, DU-4475; DU4475, Wnt pathway-dependent, 96 hours; read-out: Antiproliferative IC50 DU4475
From the text: as §1, §2

[5] = system: HepG2; assay: Proliferation inhibition, HepG2 cell line; assay type: cell-based; settings: Homo sapiens; HepG2 cells, 96 hours culture, cell viability detection; read-out: Antiproliferative IC50 HepG2
From the text: (§3) The cell lines used in the test are NCI-H929 and HepG2 cell lines whose Wnt pathway is continuously activated and whose proliferation is Wnt pathway-dependent; the inhibitory effect of the compound of the present invention on Wnt-dependent proliferation is judged.
(§4) Treat the NCI-H929 and HepG2 cell lines cultured in their respective mediums in the logarithmic growth phase, collect the cells and prepare a uniform cell suspension of known concentration, and then add the cell suspension to the 96-well cell culture plate solution so that each well contains 4000 cells. Put it into a […] incubator and incubate at 37° C. for 20-24 h. On the second day, the fully dissolved, 3-fold serially diluted compound was added to each cell culture well, so that the final maximum concentration in the cell culture well was 20 uM, and the culture was continued for 96 hours. In this test, Promega's cell viability detection test is used for detection. The more the cells proliferate, the stronger the final signal intensity will be. The detection instrument is SpectraMax, full wavelength mode. The wells only added with DMSO were used as positive control wells, and the wells that were not inoculated with cells were used as negative control wells. […] The IC50 value of cell proliferation inhibition was used to evaluate the inhibitory effect of the compound on the Wnt pathway and the toxic effect on normal cells (Table 3).

[6] = system: NCI-H929; assay: Proliferation inhibition, NCI-H929 cell line; assay type: cell-based, human; settings: Homo sapiens; NCI-H929 cells, 96 hours culture, cell viability detection; read-out: Antiproliferative IC50 NCI-H929
From the text: as §3, §4

Row | Compound | IC50 [1] [nM] | IC50 [2] [nM] | IC50 [5] [nM] | IC50 [6] [nM] | IC50 [3] [nM] | IC50 [4] [nM]
1 | Cc1cc(CNc2nc3c4c(n2)N(C)[C@@H](C)C(=O)N4CCC3)cnc1Oc1ccc(C(F)(F)F)nc1 [103 (W195)] | 19 | 36 | 68 | – | > 10000 | 11
2 | CC(C)N1c2nc(NCc3ccc(Oc4cnc(C(F)(F)F)nc4)nc3)nc3c2N(CCC3)C(=O)[C@@H]1C [170 (W368)] | 7 | 17 | 31 | 94 | > 10000 | –
3 | COC[C@@]1(C)C(=O)N2CCCc3nc(NCc4ccc(Oc5ccc(C(F)(F)F)nc5)nc4)nc(c32)N1C [179 (W375)] | – | 23 | 11 | 45 | > 10000 | –
4 | COC[C@@]1(C)C(=O)N2CCCc3nc(NCc4ccc(Oc5cnc(C(F)(F)F)nc5)nc4)nc(c32)N1C [180 (W386)] | 14.6 | 23 | 40 | 82 | > 10000 | –
5 | [2H]C([2H])([2H])OC[C@@]1(C)C(=O)N2CCCc3nc(NCc4ccc(Oc5cnc(C(F)(F)F)nc5)nc4)nc(c32)N1C([2H])([2H])[2H] [181 (W396)] | 11.9 | 18 | 81 | 25 | > 10000 | –
6 | [2H]C([2H])([2H])N1c2nc(NCc3ccc(Oc4cc(C(F)(F)F)nn4CC)nc3)nc3c2N(CCC3)C(=O)[C@@H]1COC [201 (W360)] | 3.6 | 6 | 14 | 51 | > 10000 | –
7 | CCn1nc(C(F)(F)F)cc1Oc1ccc(CNc2nc3c4c(n2)N(C)[C@@H](COC)C(=O)N4CCC3)cn1 [202 (W361)] | 5 | 4 | 10 | 50 | > 10000 | –
8 | COCC[C@H]1C(=O)N2CCCc3nc(NCc4ccc(Oc5ccc(C(F)(F)F)nc5)nc4)nc(c32)N1C [214 (W392)] | 34 | – | 9.6 | 82 | > 10000 | –
9 | C[C@H]1C(=O)N2CCCc3nc(NCc4cnc(Oc5ccc(C(F)(F)F)nc5)c(C#N)c4)nc(c32)N1C [238 (W426)] | 24.6 | 27.3 | 25.8 | – | > 10000 | –

The next molecules have a lower IC50 [5] than those just listed; values first:

Row | IC50 [1] [nM] | IC50 [2] [nM] | IC50 [5] [nM] | IC50 [6] [nM] | Compound | IC50 [3] [nM] | IC50 [4] [nM]
10 | < 0.5 | < 0.5 | < 0.5 | 19 | C[C@H]1C(=O)N2CCCc3nc(NCc4ccc(Oc5cc(C(F)(F)F)nn5C5CC5)nc4)nc(c32)N1C [130 (W354), (S)-2-(((6-((1-cyclopropyl-3-(trifluoromethyl)-1H-pyrazol-5-yl)oxo)pyridin-3-yl)methyl)amino)-4,5-dimethyl-4,5,9,10-tetrahydro-6H,8H-pyrido[3,2,1-de]pteridin-6-one] | > 10000 | –
11 | 2.7 | 4 | 4.4 | 36 | CCn1nc(C(F)(F)F)cc1Oc1ccc(CNc2nc3c4c(n2)N(C)[C@@H](C)C(=O)N4CCC3)cn1 [152 (W336)] | > 10000 | –
12 | < 0.5 | 3 | 3.5 | 48 | CN1c2nc(NCc3ccc(Oc4cnc(C(F)(F)F)nc4)nc3)nc3c2N(CCC3)C(=O)[C@@H]1C(C)(C)C [160 (W362)] | 7150 | –
13 | 3.2 | 23 | 4 | 12 | [2H]C([2H])([2H])N1c2nc(NCc3ccc(Oc4cnc(C(F)(F)F)nc4)nc3)nc3c2N(CCC3)C(=O)C1CC(F)(F)F (centres unmarked) [192 (W324)] | > 10000 | –
14 | 2.1 | 22 | 4 | 19 | [2H]C([2H])([2H])N1c2nc(NCc3ccc(Oc4ccc(C(F)(F)F)nc4)nc3)nc3c2N(CCC3)C(=O)C1CC(F)(F)F (centres unmarked) [195 (W323)] | > 10000 | –
15 | 4 | 5.5 | < 0.5 | – | COc1nc(C(F)(F)F)ccc1Oc1ccc(CNc2nc3c4c(n2)N(C)[C@@](C)(CO)C(=O)N4CCC3)cn1 [232 (W418)] | > 10000 | –
